Source: PubChem BioAssay AID222 (DTP/NCI, 2004)
“And” between values parts separate entries of the source, which are not always exact repeats. Identical values can stand only once. Inconclusive results and toxic doses are left out.

Tested on: C57BL/6 mice, intracerebral ependymoblastoma, median survival T/C
Assay: NCI In Vivo Anticancer Drug Screen. Data for tumor model Ependymoblastoma (intracerebral) in C57BL/6 mice
Details: endpoint: median survival time, higher = longer survival
Description: The antitumor activity of compounds was measured in mice bearing transplantable tumors. Survival or tumor size were measured and the results are expressed as the measurement made in the treated group (T) divided by the measurement made in the vehicle treated control group (C). The tumor model used in this assay is Ependymoblastoma (intracerebral) in C57BL/6 mice

## OC(C1CO1)C(O)C1CO1 (stereo not given)
dose: 0.12 mg/kg/injection, schedule: Q03HX024 (ip), vehicle: saline
  T/C: 108 % of control
dose: 0.25 mg/kg/injection, schedule: Q01DX001 (ip), vehicle: saline
  T/C: 102 % of control
dose: 0.25 mg/kg/injection, schedule: Q01DX005 (ip), vehicle: saline
  T/C: 112 % of control
dose: 0.25 mg/kg/injection, schedule: Q01DX005 (oral), vehicle: saline
  T/C: 111 % of control
dose: 0.25 mg/kg/injection, schedule: Q01DX009 (ip), vehicle: saline
  T/C: 101 % of control
dose: 0.25 mg/kg/injection, schedule: Q03HX008 (ip), vehicle: saline
  T/C: 110 % of control
dose: 0.25 mg/kg/injection, schedule: Q03HX016 (ip), vehicle: saline
  T/C: 103 % of control
dose: 0.25 mg/kg/injection, schedule: Q03HX024 (ip), vehicle: saline
  T/C: 99 % of control
dose: 0.5 mg/kg/injection, schedule: Q01DX001 (ip), vehicle: saline
  T/C: 112 % of control
dose: 0.5 mg/kg/injection, schedule: Q01DX001 (oral), vehicle: saline
  T/C: 101 % of control
dose: 0.5 mg/kg/injection, schedule: Q01DX005 (ip), vehicle: clinical formulation
  T/C: 104 % of control
dose: 0.5 mg/kg/injection, schedule: Q01DX005 (oral), vehicle: saline
  T/C: 110 % of control
dose: 0.5 mg/kg/injection, schedule: Q01DX009 (ip), vehicle: saline
  T/C: 108 % of control
dose: 0.5 mg/kg/injection, schedule: Q03HX008 (ip), vehicle: saline
  T/C: 123 % of control
dose: 0.5 mg/kg/injection, schedule: Q03HX016 (ip), vehicle: saline
  T/C: 107 % of control
dose: 0.5 mg/kg/injection, schedule: Q03HX024 (ip), vehicle: saline
  T/C: 98 % of control
dose: 0.5 mg/kg/injection, schedule: Q## X006 (ip), vehicle: clinical formulation
  T/C: 107 % of control
dose: 1.0 mg/kg/injection, schedule: Q01DX001 (ip), vehicle: saline
  T/C: 95 % of control and 107 % of control
dose: 1.0 mg/kg/injection, schedule: Q01DX001 (oral), vehicle: saline
  T/C: 108 % of control
dose: 1.0 mg/kg/injection, schedule: Q01DX005 (ip), vehicle: clinical formulation
  T/C: 116 % of control
dose: 1.0 mg/kg/injection, schedule: Q01DX005 (oral), vehicle: saline
  T/C: 106 % of control
dose: 1.0 mg/kg/injection, schedule: Q01DX009 (ip), vehicle: saline
  T/C: 109 % of control
dose: 1.0 mg/kg/injection, schedule: Q03HX016 (ip), vehicle: saline
  T/C: 113 % of control
dose: 1.0 mg/kg/injection, schedule: Q03HX024 (ip), vehicle: saline
  T/C: 94 % of control
dose: 1.0 mg/kg/injection, schedule: Q04DX003 (ip), vehicle: saline
  T/C: 100 % of control
dose: 1.0 mg/kg/injection, schedule: Q08DX002 (ip), vehicle: saline
  T/C: 108 % of control
dose: 1.0 mg/kg/injection, schedule: Q## X006 (ip), vehicle: clinical formulation
  T/C: 108 % of control
dose: 1.0 mg/kg/injection, schedule: Q#A X002 (ip), vehicle: clinical formulation
  T/C: 104 % of control
dose: 1.25 mg/kg/injection, schedule: Q01DX005 (ip), vehicle: saline
  T/C: 365 % of control
dose: 2.0 mg/kg/injection, schedule: Q01DX001 (ip), vehicle: clinical formulation
  T/C: 91 % of control and 96 % of control and 107 % of control
dose: 2.0 mg/kg/injection, schedule: Q01DX001 (ip), vehicle: saline
  T/C: 94 % of control and 100 % of control and 113 % of control
dose: 2.0 mg/kg/injection, schedule: Q01DX001 (oral), vehicle: saline
  T/C: 108 % of control
dose: 2.0 mg/kg/injection, schedule: Q01DX005 (ip), vehicle: clinical formulation
  T/C: 115 % of control
dose: 2.0 mg/kg/injection, schedule: Q01DX005 (oral), vehicle: clinical formulation
  T/C: 106 % of control
dose: 2.0 mg/kg/injection, schedule: Q01DX005 (oral), vehicle: saline
  T/C: 118 % of control
dose: 2.0 mg/kg/injection, schedule: Q01DX009 (ip), vehicle: saline
  T/C: 113 % of control
dose: 2.0 mg/kg/injection, schedule: Q03HX016 (ip), vehicle: saline
  T/C: 118 % of control
dose: 2.0 mg/kg/injection, schedule: Q03HX024 (ip), vehicle: saline
  T/C: 105 % of control
dose: 2.0 mg/kg/injection, schedule: Q04DX003 (ip), vehicle: saline
  T/C: 105 % of control
dose: 2.0 mg/kg/injection, schedule: Q08DX002 (ip), vehicle: saline
  T/C: 102 % of control
dose: 2.0 mg/kg/injection, schedule: Q## X006 (ip), vehicle: clinical formulation
  T/C: 109 % of control
dose: 2.0 mg/kg/injection, schedule: Q#A X002 (ip), vehicle: clinical formulation
  T/C: 106 % of control
dose: 2.5 mg/kg/injection, schedule: Q01DX005 (oral), vehicle: saline
  T/C: 365 % of control
dose: 3.0 mg/kg/injection, schedule: Q01DX005 (ip), vehicle: saline
  T/C: 119 % of control and 301 % of control
dose: 4.0 mg/kg/injection, schedule: Q01DX001 (ip), vehicle: clinical formulation
  T/C: 102 % of control and 105 % of control and 108 % of control
dose: 4.0 mg/kg/injection, schedule: Q01DX001 (ip), vehicle: saline
  T/C: 94 % of control and 120 % of control
dose: 4.0 mg/kg/injection, schedule: Q01DX001 (oral), vehicle: saline
  T/C: 96 % of control
dose: 4.0 mg/kg/injection, schedule: Q01DX009 (ip), vehicle: saline
  T/C: 103 % of control
dose: 4.0 mg/kg/injection, schedule: Q03HX008 (ip), vehicle: saline
  T/C: 97 % of control
dose: 4.0 mg/kg/injection, schedule: Q03HX016 (ip), vehicle: saline
  T/C: 93 % of control
dose: 4.0 mg/kg/injection, schedule: Q03HX024 (ip), vehicle: saline
  T/C: 94 % of control
dose: 4.0 mg/kg/injection, schedule: Q04DX003 (ip), vehicle: saline
  T/C: 95 % of control
dose: 4.0 mg/kg/injection, schedule: Q08DX002 (ip), vehicle: saline
  T/C: 102 % of control
dose: 4.0 mg/kg/injection, schedule: Q#A X002 (ip), vehicle: clinical formulation
  T/C: 117 % of control
dose: 5.0 mg/kg/injection, schedule: Q01DX005 (oral), vehicle: saline
  T/C: 365 % of control
dose: 8.0 mg/kg/injection, schedule: Q01DX001 (ip), vehicle: clinical formulation
  T/C: 89 % of control and 106 % of control
dose: 8.0 mg/kg/injection, schedule: Q01DX001 (ip), vehicle: saline
  T/C: 94 % of control and 108 % of control and 112 % of control
dose: 8.0 mg/kg/injection, schedule: Q01DX001 (oral), vehicle: clinical formulation
  T/C: 91 % of control and 102 % of control and 115 % of control
dose: 8.0 mg/kg/injection, schedule: Q01DX001 (oral), vehicle: saline
  T/C: 108 % of control
dose: 8.0 mg/kg/injection, schedule: Q01DX009 (ip), vehicle: saline
  T/C: 107 % of control
dose: 8.0 mg/kg/injection, schedule: Q03HX008 (ip), vehicle: saline
  T/C: 95 % of control
dose: 8.0 mg/kg/injection, schedule: Q03HX016 (ip), vehicle: saline
  T/C: 94 % of control
dose: 8.0 mg/kg/injection, schedule: Q04DX003 (ip), vehicle: saline
  T/C: 122 % of control
dose: 8.0 mg/kg/injection, schedule: Q08DX002 (ip), vehicle: saline
  T/C: 104 % of control
dose: 8.0 mg/kg/injection, schedule: Q#A X002 (ip), vehicle: clinical formulation
  T/C: 100 % of control
dose: 16.0 mg/kg/injection, schedule: Q01DX001 (ip), vehicle: clinical formulation
  T/C: 98 % of control
dose: 16.0 mg/kg/injection, schedule: Q01DX001 (ip), vehicle: saline
  T/C: 98 % of control and 101 % of control
dose: 16.0 mg/kg/injection, schedule: Q01DX001 (oral), vehicle: clinical formulation
  T/C: 104 % of control and 108 % of control
dose: 16.0 mg/kg/injection, schedule: Q01DX001 (oral), vehicle: saline
  T/C: 101 % of control
dose: 16.0 mg/kg/injection, schedule: Q04DX003 (ip), vehicle: saline
  T/C: 99 % of control
dose: 16.0 mg/kg/injection, schedule: Q08DX002 (ip), vehicle: saline
  T/C: 104 % of control
dose: 16.0 mg/kg/injection, schedule: Q#A X002 (ip), vehicle: clinical formulation
  T/C: 102 % of control
dose: 32.0 mg/kg/injection, schedule: Q01DX001 (ip), vehicle: clinical formulation
  T/C: 100 % of control
dose: 32.0 mg/kg/injection, schedule: Q01DX001 (ip), vehicle: saline
  T/C: 90 % of control and 100 % of control
dose: 32.0 mg/kg/injection, schedule: Q01DX001 (oral), vehicle: clinical formulation
  T/C: 100 % of control and 114 % of control
dose: 32.0 mg/kg/injection, schedule: Q01DX001 (oral), vehicle: saline
  T/C: 103 % of control
dose: 32.0 mg/kg/injection, schedule: Q04DX003 (ip), vehicle: saline
  T/C: 92 % of control
dose: 32.0 mg/kg/injection, schedule: Q08DX002 (ip), vehicle: saline
  T/C: 99 % of control
dose: 64.0 mg/kg/injection, schedule: Q01DX001 (ip), vehicle: saline
  T/C: 97 % of control and 102 % of control
dose: 64.0 mg/kg/injection, schedule: Q01DX001 (oral), vehicle: clinical formulation
  T/C: 100 % of control
dose: 128.0 mg/kg/injection, schedule: Q01DX001 (oral), vehicle: clinical formulation
  T/C: 100 % of control

## CS(C)=O
dose: 1.5 grams/kg/injection, schedule: Q01DX005 (ip), vehicle: saline
  T/C: 103 % of control
dose: 6.0 grams/kg/injection, schedule: Q01DX005 (ip), vehicle: saline
  T/C: 103 % of control

## O=NN(CCF)C(=O)NC1CCCCC1
dose: 10.0 mg/kg/injection, schedule: Q01DX005 (ip), vehicle: suspension in saline
  T/C: 123 % of control
dose: 20.0 mg/kg/injection, schedule: Q01DX005 (ip), vehicle: suspension in saline
  T/C: 262 % of control
